According to US20240400571A1, “5,6 UNSATURATED BICYCLIC HETEROCYLES USEFUL AS INHIBITORS OF NOD-LIKE RECEPTOR PROTEIN 3” (Merck Sharp & Dohme LLC, priority 2023, published 2024):

Biological target: T1, NLRP3 inflammasome (Homo sapiens, UniProt Q96P20)
T1 construct: host or cells: THP-1 human monocytic cells, treated with PMA and stimulated with gramicidin
Assay: ASC-SPECK formation in THP-1 cells after gramicidin stimulation (NLRP3 inflammasome activation)
Assay type: cell-based
Details: PMA-treated human monocytic THP-1 cells; compound 1 h before 12.5 μg/ml gramicidin, 3-hour treatment; ASC SPECK imaging; read-out: EC50 values (nM) for Examples that inhibit NLRP3 inflammasome activation
Protocol: The ability of compounds to inhibit NLRP3 inflammasome activation was determined in vitro by monitoring formation of the ASC-SPECK in human monocytic THP-1 cells after stimulation. THP-1 cells (ATCC catalog #TIB-202) were maintained in complete growth media containing Roswell Park Memorial Institute RPMI (ATCC catalog #30-2001), 10% heat inactivated fetal bovine serum, 1× penicillin/streptomycin and 0.05 mM 2-mercaptoethanol. At the start of the assay, undifferentiated THP-1 cells were plated at a density of 20,000 cells per well in a 384-well plate (Poly-D-lysine coated Cell Carrier Ultra microplate, Perkin Elmer catalog #6057500) in complete growth media supplemented with 10 ng/ml phorbol 12-myristate 13-acetate (PMA; Sigma catalog #P8139), and then incubated overnight. The next day, media was replaced with assay media [RPMI (Gibco catalog #11875-093), 0.01% bovine serum albumin (BSA)]. Compounds were serially diluted in DMSO and then added to wells one hour prior to the addition of 12.5 μg/ml Gramicidin (Enzo Lifescience, catalog #ALX-350-233-M005). All incubations were carried out at 37° C. (5% CO2/95% air). Following a 3-hour treatment with gramicidin, cells are fixed with 4% paraformaldehyde and stored at 4° C. until immunofluorescence staining.
Immunofluorescence staining: Anti-ASC antibody (MBL catalog #D086-3) was desalted and labeled with Alexa 488 antibody labeling kit (Thermo catalog #A20181) prior to use as described below. After fixation, the following steps were carried out at room temperature. Cells were first permeabilized with 0.3% Triton X-100 in phosphate-buffered saline (PBS) for 15 minutes and then incubated in blocking buffer containing 5% goat serum, 0.3% tween-20 and 0.03% sodium azide in PBS for 1 hour. Cells were stained with a mixture of ASC-Alexa 488 antibody (diluted 1:200 in blocking buffer) and nuclear stain DRAQ5 (1:5000 in blocking buffer, Thermo catalog #62251) in blocking buffer for 1 hour. Following a wash with 0.3% Tween-20 in PBS, plates were imaged with an Opera Phenix High Content Screening System. The number of DRAQ5 positive cells containing ASC SPECKS were quantified in each well.
Data analysis: EC50 values were calculated by standard curve-fitting analysis using an internally developed program in TIBCO Spotfire software.

T1 sequence (Q96P20 whole entry): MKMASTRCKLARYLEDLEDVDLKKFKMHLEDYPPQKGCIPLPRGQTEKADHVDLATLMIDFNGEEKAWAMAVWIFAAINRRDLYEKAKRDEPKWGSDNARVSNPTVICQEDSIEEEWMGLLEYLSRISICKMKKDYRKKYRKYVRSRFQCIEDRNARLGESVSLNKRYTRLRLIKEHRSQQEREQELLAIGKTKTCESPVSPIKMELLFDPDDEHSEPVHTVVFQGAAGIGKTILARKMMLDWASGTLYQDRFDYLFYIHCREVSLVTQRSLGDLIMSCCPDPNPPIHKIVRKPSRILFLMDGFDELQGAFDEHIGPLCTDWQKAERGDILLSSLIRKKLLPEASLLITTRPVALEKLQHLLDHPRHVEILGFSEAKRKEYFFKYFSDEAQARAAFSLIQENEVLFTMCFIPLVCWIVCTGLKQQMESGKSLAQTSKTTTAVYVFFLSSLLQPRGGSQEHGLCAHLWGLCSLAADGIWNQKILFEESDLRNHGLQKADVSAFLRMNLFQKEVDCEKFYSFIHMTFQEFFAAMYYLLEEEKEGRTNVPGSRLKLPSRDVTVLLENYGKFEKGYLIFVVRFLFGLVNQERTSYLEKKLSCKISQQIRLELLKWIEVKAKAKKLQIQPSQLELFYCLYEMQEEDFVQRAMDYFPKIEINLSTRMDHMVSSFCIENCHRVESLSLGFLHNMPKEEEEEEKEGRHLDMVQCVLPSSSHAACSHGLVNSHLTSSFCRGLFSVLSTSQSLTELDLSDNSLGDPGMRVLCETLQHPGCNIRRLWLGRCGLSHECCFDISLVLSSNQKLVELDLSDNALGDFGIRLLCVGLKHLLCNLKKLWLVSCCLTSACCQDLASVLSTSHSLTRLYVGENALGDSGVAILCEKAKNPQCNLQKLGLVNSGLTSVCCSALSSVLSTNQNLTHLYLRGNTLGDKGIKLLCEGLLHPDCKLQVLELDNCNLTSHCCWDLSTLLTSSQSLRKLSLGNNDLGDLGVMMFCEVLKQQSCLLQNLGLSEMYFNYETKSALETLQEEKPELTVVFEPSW

SMILES | EC50
Cc1cc(C(F)(F)F)cc(O)c1-c1cc2ncn(C3CCCN(C)C3)c2nn1 (racemic) [Example 4, (R and S)-3-methyl-2-(7-(1-methylpiperidin-3-yl)-7H-imidazo[4,5-c]pyridazin-3-yl)-5-(trifluoromethyl)phenol] | 91 nM
CCN1CC[C@@H](O)[C@@H](n2cnc3c(C)c(-c4ccc(C(F)(F)F)cc4O)nnc32)C1 [Example 12, (3S,4R)-1-ethyl-3-(3-(2-hydroxy-4-(trifluoro-methyl)phenyl)-4-methyl-7H-imidazo[4,5-c]pyridazin-7-yl)piperidin-4-ol] | 103 nM
Cc1c(-c2ccc(C(F)(F)F)cc2O)nnc2c1ncn2[C@H]1CN(C)CC[C@H]1O [Example 11, (3S,4R)-3-(3-(2-hydroxy-4-(trifluoro-methyl)phenyl)-4-methyl-7H-imidazo[4,5-c]pyridazin-7-yl)-1-methylpiperidin-4-ol] | 147 nM
Cc1c(-c2ccc(C(F)(F)F)cc2O)nnc2c1ncn2[C@H]1CCCN2CCC[C@H]12 (single isomer, unassigned) [Example 33] | 1360 nM
Cc1c(-c2ccc(C(F)(F)F)cc2O)nnc2c1ncn2[C@@H]1CC[C@@H]2CC[C@H]1N2C (single isomer, unassigned) [Example 29] | 26 nM
Cc1c(-c2ccc(C(F)(F)F)cc2O)nnc2c1ncn2[C@@H]1CCCN2CCC[C@@H]12 (single isomer, unassigned) [Example 34] | 87 nM
Cc1ccc(-c2nnc3c(ncn3[C@@H]3CCCN(C)C3)c2C)c(O)c1F [Example 20, (R)-2-fluoro-3-methyl-6-(4-methyl-7-(1-methylpiperidin-3-yl)-7H-imidazo[4,5-c]pyridazin-3-yl)phenol] | 84 nM
Cc1c(-c2ccc(C(F)(F)F)cc2O)nnc2c1ncn2[C@@H]1CCCN(C2CCC2)C1 [Example 23, (R)-2-(7-(1-cyclobutylpiperidin-3-yl)-4-methyl-7H-imidazo[4,5-c]pyridazin-3-yl)-5-(trifluoromethyl)phenol] | 112 nM
Cc1c(-c2ccc(Cl)cc2O)nnc2c1ncn2[C@@H]1CCCNC1 [Example 13, (R)-5-chloro-2-(4-methyl-7-(piperidin-3-yl)-7H-imidazo[4,5-c]pyridazin-3-yl)phenol] | 320 nM
Cc1c(-c2ccc(C(F)(F)F)cc2O)nnc2c1ncn2[C@@H]1CCCNC1 [Example 5, (R)-2-(4-methyl-7-(piperidin-3-yl)-7H-imidazo[4,5-c]pyridazin-3-yl)-5-(trifluoromethyl)phenol] | 143 nM
Cc1c(-c2ccc(C(F)(F)F)cc2O)nnc2c1nc(C)n2[C@@H]1CCCN(C)C1 [Example 14, (R)-2-(4,6-dimethyl-7-(1-methylpiperidin-3-yl)-7H-imidazo[4,5-c]pyridazin-3-yl)-5-(trifluoromethyl)phenol] | 567 nM
CN1CCCC(n2cnc3cc(-c4ccc(C(F)(F)F)cc4O)nnc32)C1 (racemic) [Example 8, (R and S)-2-(7-(1-methylpiperidin-3-yl)-7H-imidazo[4,5-c]pyridazin-3-yl)-5-(trifluoromethyl)phenol] | 1000 nM
CCN1[C@@H]2CC[C@H]1[C@@H](n1cnc3c(C)c(-c4ccc(C(F)(F)F)cc4O)nnc31)CC2 (single isomer, unassigned) [Example 31] | 889 nM
Cc1c(-c2ccc(C(F)(F)F)cc2O)nnc2c1ncn2[C@H]1CNCC[C@H]1O [Example 6, (3S,4R)-3-(3-(2-hydroxy-4-(trifluoro-methyl)phenyl)-4-methyl-7H-imidazo[4,5-c]pyridazin-7-yl)piperidin-4-ol] | 550 nM
Cc1c(-c2ccc(C3CC3)c(F)c2O)nnc2c1ncn2[C@@H]1CCCN(C)C1 [Example 27, (R)-3-cyclopropyl-2-fluoro-6-(4-methyl-7-(1-methylpiperidin-3-yl)-7H-imidazo-[4,5-c]pyridazin-3-yl)phenol] | 1530 nM
Cc1c(-c2c(O)cc(Cl)cc2F)nnc2c1ncn2[C@@H]1CCCN(C)C1 [Example 26, 5-chloro-3-fluoro-2-(4-methyl-7-((R)-1-methylpiperidin-3-yl)-7H-imidazo-[4,5-c]pyridazin-3-yl)phenol] | 81 nM
Cc1c(-c2ccc3c(c2O)CC(F)(F)C3)nnc2c1ncn2[C@@H]1CCCN(C)C1 [Example 21, (R)-2,2-difluoro-5-(4-methyl-7-(1-methylpiperidin-3-yl)-7H-imidazo[4,5-c]pyridazin-3-yl)-2,3-dihydro-1H-inden-4-ol] | 996 nM
Cc1c(-c2ccc(C(F)(F)F)cc2O)nnc2c1ncn2[C@H]1CC[C@H]2CC[C@@H]1N2C (single isomer, unassigned) [Example 28] | 1410 nM
Cc1c(-c2ccc(C(F)(F)F)cc2O)nnc2c1ncn2[C@@H]1CC[C@@H]2CC[C@H]1N2 (single isomer, unassigned) [Example 24] | 130 nM
CCN1[C@H]2CC[C@@H]1[C@H](n1cnc3c(C)c(-c4ccc(C(F)(F)F)cc4O)nnc31)CC2 (single isomer, unassigned) [Example 30] | 9 nM
Cc1c(-c2ccc3sccc3c2O)nnc2c1ncn2[C@@H]1CCCN(C)C1 [Example 15, (R)-5-(4-methyl-7-(1-methylpiperidin-3-yl)-7H-imidazo[4,5-c]pyridazin-3-yl)benzo[b]thiophen-4-ol] | 61 nM

The next lines start with the values.

EC50 | SMILES
19 nM | CCN1CCC[C@@H](n2ccc3cc(-c4c(C)cc(C(F)(F)F)cc4O)nnc32)C1 [Example 1, (R)-2-(7-(1-ethylpiperidin-3-yl)-7H-pyrrolo[2,3-c]pyridazin-3-yl)-3-methyl-5-(trifluoromethyl)phenol]
28 nM | Cc1c(-c2ccc(Cl)cc2O)nnc2c1ncn2[C@@H]1CCCN(C)C1 [Example 17, (R)-5-chloro-2-(4-methyl-7-(1-methylpiperidin-3-yl)-7H-imidazo[4,5-c]pyridazin-3-yl)phenol]
13 nM | CCN1CCC[C@@H](n2cnc3c(C)c(-c4ccc(C(F)(F)F)cc4O)nnc32)C1 [Example 7, (R)-2-(7-(1-ethylpiperidin-3-yl)-4-methyl-7H-imidazo[4,5-c]pyridazin-3-yl)-5-(trifluoromethyl)phenol]
23 nM | Cc1c(-c2ccc3c(c2O)CCC3)nnc2c1ncn2[C@@H]1CCCN(C)C1 [Example 16, (R)-5-(4-methyl-7-(1-methylpiperidin-3-yl)-7H-imidazo[4,5-c]pyridazin-3-yl)-2,3-dihydro-1H-inden-4-ol]
29 nM | CCN1CCC[C@@H](n2cnc3c(C)c(-c4ccc(Cl)cc4O)nnc32)C1 [Example 18, (R)-5-chloro-2-(7-(1-ethylpiperidin-3-yl)-4-methyl-7H-imidazo[4,5-c]pyridazin-3-yl)phenol]
25 nM | Cc1c(-c2ccc(C(F)(F)F)cc2O)nnc2c1ncn2[C@@H]1CCCN(C)C1 [Example 10, (R)-2-(4-methyl-7-(1-methylpiperidin-3-yl)-7H-imidazo[4,5-c]pyridazin-3-yl)-5-(trifluoromethyl)phenol]
20 nM | Cc1c(-c2ccc(C(F)(F)F)cc2O)nnc2c1ncn2[C@@H]1CCCN(C(C)C)C1 [Example 22, (R)-2-(7-(1-isopropylpiperidin-3-yl)-4-methyl-7H-imidazo[4,5-c]pyridazin-3-yl)-5-(trifluoromethyl)phenol]
53 nM | Cc1c(-c2ccc3c(c2O)CCC3)nnc2c1ncn2[C@@H]1CCCNC1 [Example 19, (R)-5-(4-methyl-7-(piperidin-3-yl)-7H-imidazo[4,5-c]pyridazin-3-yl)-2,3-dihydro-1H-inden-4-ol]
29 nM | [2H]C([2H])([2H])N1CCC[C@@H](n2cnc3c(C)c(-c4ccc(C(F)(F)F)cc4O)nnc32)C1 [Example 35, (R)-2-(4-methyl-7-(1-(methyl-d3)piperidin-3-yl)-7H-imidazo[4,5-c]pyridazin-3-yl)-5-(trifluoromethyl)phenol]
47 nM | Cc1c(-c2ccc(C(F)(F)F)cc2O)nnc2c1ncn2C12CCCC(N)(C1)C2 [Example 32, 2-(7-(5-aminobicyclo[3.1.1]heptan-1-yl)-4-methyl-7H-imidazo[4,5-c]pyridazin-3-yl)-5-(trifluoromethyl)phenol]
21 nM | CCN1CCC[C@@H](n2cnc3cc(-c4c(C)cc(C(F)(F)F)cc4O)nnc32)C1 [Example 3, (R)-2-(7-(1-ethylpiperidin-3-yl)-7H-imidazo[4,5-c]pyridazin-3-yl)-3-methyl-5-(trifluoromethyl)phenol]
